# According to patent US10844044B2 (Vanderbilt University, priority 2018, dated 2020):
# Target: WDR5 (Homo sapiens (Human), UniProt P61964)
# Experiment: TR-FRET binding assay (displacement of 10mer-Thr-FAM probe from WDR5)
# Conditions: read-out: Ki for Inhibition of WDR5 by TR-FRET assay
row,Structure (SMILES),Ki [nM]
1,"Cc1cc([C@@H](NC(=O)c2cc(Cn3c(C)coc3=N)cc(-c3cccnc3C(F)(F)F)c2)C2CC2)ccc1F [Example 252, (S)—N-(Cyclopropyl(4-fluoro-3-methylphenyl)methyl)-3-((2-imino-4-methyloxazol-3(2H)-yl)methyl)-5-(2-(trifluoromethyl)pyridin-3-yl)benzamide]",21
2,"C[C@H](NC(=O)c1cc(Cn2ccoc2=N)cc(-c2cccnc2C(F)(F)F)c1)c1ccc(F)c(Cl)c1 [Example 257, (S)—N-(1-(3-Chloro-4-fluorophenyl)ethyl)-3-((2-iminooxazol-3(2H)-yl)methyl)-5-(2-(trifluoromethyl)pyridin-3-yl)benzamide]",2
3,C[C@H](NC(=O)c1cc(Cn2ccoc2=N)cc(-c2cccnc2C(F)(F)F)c1)c1ccc(C(F)(F)F)cc1 [Example 258],5.8
4,"CCn1cc(-c2cc(CN3CCOC3=N)cc(C(=O)NCC3CCOCC3)c2)c(C(F)(F)F)n1 [Example 288, 3-(1-Ethyl-3-(trifluoromethyl)-1H-pyrazol-4-yl)-5-((2-iminooxazolidin-3-yl)methyl)-N-((tetrahydro-2H-pyran-4-yl)methyl)benzamide]",8.7

# Same assay, conditions: read-out: Ki for Inhibition of WDR5 by TR-FRET assay; TR-FRET, 10mer-Thr-FAM probe, WDR5-His tag 2 nM, pH 7.0
row,Structure (SMILES),Ki [nM]
1,"Cc1cc([C@@H](NC(=O)c2cc(Cn3ccn(C)c3=N)cc(N3CCCC3)c2)C2CC2)ccc1F [Example 206, (S)—N-(Cyclopropyl(4-fluoro-3-methylphenyl)methyl)-3-((2-imino-3-methyl-2,3-dihydro-1H-imidazol-1-yl)methyl)-5-(pyrrolidin-1-yl)benzamide]",0.34
2,"Cc1cc([C@@H](NC(=O)c2cc(Cn3ccn(C)c3=N)cc(N3CCCC3)c2)C2CC2)ncc1F [Example 208, (S)—N-(Cyclopropyl(5-fluoro-4-methylpyridin-2-yl)methyl)-3-((2-imino-3-methyl-2,3-dihydro-1H-imidazol-1-yl)methyl)-5-(pyrrolidin-1-yl)benzamide]",0.59
3,"Cc1cc([C@@H](NC(=O)c2cc(Cn3ccn(C)c3=N)cc(C3(C(F)(F)F)CC3)c2)C2CC2)ncc1F [Example 218, (S)—N-(cyclopropyl(5-fluoro-4-methylpyridin-2-yl)methyl)-3-((2-imino-3-methyl-2,3-dihydro-1H-imidazol-1-yl)methyl)-5-(1-(trifluoromethyl)cyclopropyl)benzamide]",< 0.1
4,"Cc1cc([C@@H](NC(=O)c2cc(Cn3ccn(C)c3=N)cc(N3CCC[C@@H]3C(F)(F)F)c2)C2CC2)ccc1F [Example 222, N—((S)-Cyclopropyl(4-fluoro-3-methylphenyl)methyl)-3-((2-imino-3-methyl-2,3-dihydro-1H-imidazol-1-yl)methyl)-5-((R)-2-(trifluoromethyl)pyrrolidin-1-yl)benzamide]",0.33
5,Cc1cc([C@@H](NC(=O)c2cc(Cn3ccn(C)c3=N)cc(N3CCC[C@H]3C(F)(F)F)c2)C2CC2)ccc1F [Example 223],1.3
6,"Cc1cc([C@@H](NC(=O)c2cc(Cn3ccn(C)c3=N)cc(-n3ccnc3C)c2)C2CC2)ccc1F [Example 224, (S)—N-(Cyclopropyl(4-fluoro-3-methylphenyl)methyl)-3-((2-imino-3-methyl-2,3-dihydro-H-imidazol-1-yl)methyl)-5-(2-methyl-1H-imidazol-1-yl)benzamide]",0.14
7,"CCn1cc(-c2cc(Cn3ccn(C)c3=N)cc(C(=O)N[C@H](c3ccc(F)c(C)c3)C3CC3)c2)c(C)n1 [Example 225, (S)—N-(Cyclopropyl(4-fluoro-3-methylphenyl)methyl)-3-(1-ethyl-3-methyl-1H-pyrazol-4-yl)-5-((2-imino-3-methyl-2,3-dihydro-1H-imidazol-1-yl)methyl)benzamide]",< 0.1
8,"Cc1cc([C@@H](NC(=O)c2cc(Cn3ccn(C)c3=N)cc(N3CCC[C@H]3C)c2)C2CC2)ccc1F [Example 226, N—((S)-Cyclopropyl(4-fluoro-3-methylphenyl)methyl)-3-((2-imino-3-methyl-2,3-dihydro-1H-imidazol-1-yl)methyl)-5-((R)-2-methylpyrrolidin-1-yl)benzamide]",7.1
9,"Cc1ccnc(C(NC(=O)c2cc(Cn3ccoc3=N)cc(-c3ncccc3C(F)(F)F)c2)C2CC2)c1 (stereo not shown) [Example 237, N-(Cyclopropyl(4-methylpyridin-2-yl)methyl)-3-((2-iminooxazol-3(2H)-yl)methyl)-5-(3-(trifluoromethyl)pyridin-2-yl)benzamide]",7.5
10,"Cc1cc([C@@H](NC(=O)c2cc(Cn3ccoc3=N)cc(-c3cncnc3C(F)(F)F)c2)C2CC2)ccc1F [Example 255, (S)—N-(Cyclopropyl(4-fluoro-3-methylphenyl)methyl)-3-((2-iminooxazol-3(2H)-yl)methyl)-5-(4-(trifluoromethyl)pyrimidin-5-yl)benzamide]",0.62
11,"CCc1coc(=N)n1Cc1cc(C(=O)N[C@H](c2ccc(F)c(C)c2)C2CC2)cc(-c2cccnc2C(F)(F)F)c1 [Example 256, (S)—N-(Cyclopropyl(4-fluoro-3-methylphenyl)methyl)-3-((4-ethyl-2-iminooxazol-3(2H)-yl)methyl)-5-(2-(trifluoromethyl)pyridin-3-yl)benzamide]",2.7
12,"C[C@H](NC(=O)c1cc(Cn2ccoc2=N)cc(-c2cccnc2C(F)(F)F)c1)c1ncc(F)cn1 [Example 262, (S)—N-(1-(5-Fluoropyrimidin-2-yl)ethyl)-3-((2-iminooxazol-3(2H)-yl)methyl)-5-(2-(trifluoromethyl)pyridin-3-yl)benzamide]",> 33
13,"Cc1cc([C@@H](NC(=O)c2cc(Cn3ccoc3=N)cc(C3CC3)c2)C2CC2)ccc1F [Example 265, (S)-3-cyclopropyl-N-(cyclopropyl(4-fluoro-3-methylphenyl)methyl)-5-((2-iminooxazol-3(2H)-yl)methyl)benzamide]",0.78
14,"Cc1cc([C@@H](NC(=O)c2cc(CN3CCCOC3=N)cc(-c3cccnc3C(F)(F)F)c2)C2CC2)ccc1F [Example 266, (S)—N-(Cyclopropyl(4-fluoro-3-methylphenyl)methyl)-3-((2-imino-1,3-oxazinan-3-yl)methyl)-5-(2-(trifluoromethyl)pyridin-3-yl)benzamide]",16
15,"N=c1occn1Cc1cc(C(=O)N[C@H](c2ccc(Cl)c(Cl)c2)C2CC2)cc(-c2ccc(F)cc2OC(F)F)c1 [Example 270, (S)—N-(Cyclopropyl(3,4-dichlorophenyl)ethyl)-2′-(difluoromethoxy)-4′-fluoro-5-((2-iminooxazol-3(2)-yl)methyl)-[1,1′-biphenyl]-3-carboxamide]",0.18
16,"N=c1occn1Cc1cc(C(=O)N[C@H](c2ccc(Cl)c(Cl)c2)C2CC2)cc(-c2cccnc2C(F)(F)F)c1 [Example 271, (S)—N-(Cyclopropyl(3,4-dichlorophenyl)methyl)-3-((2-iminooxazol-3(2H)-yl)methyl)-5-(2-(trifluoromethyl)pyridin-3-yl)benzamide]",0.72
17,"Cc1cc(F)ccc1-c1cc(Cn2ccoc2=N)cc(C(=O)NCc2ccc(Cl)c(Cl)c2)n1 [Example 277, N-(3,4-Dichlorobenzyl)-6-(4-fluoro-2-methylphenyl)-4-((2-iminooxazol-3(2H)-yl)methyl)picolinamide]",> 33
18,"Cc1cc([C@@H](NC(=O)c2cc(CN3CCOC3=N)cc(-c3cn(CC(C)C)nc3C(F)(F)F)c2)C2CC2)ccc1F [Example 278, (S)—N-(Cyclopropyl(4-fluoro-3-methylphenyl)methyl)-3-((2-iminooxazolidin-3-yl)methyl)-5-(1-isobutyl-3-(trifluoromethyl)-1H-pyrazol-4-yl)benzamide]",0.34
